# Reference: PubChem BioAssay (NCI)
#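 Step 1: Grow cells in 96-well plates. Step 2: Expose to compound for 48 hours at 5 concentrations. Step 3: Interpolate endpoints linearly; if unreached, use highest concentration. Definition used: TGI = concentration required for complete inhibition of growth.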
# What was measured:
# Test in all cases: NCI tumour cell line growth inhibition, 48 h
# NCI-H522 lung = test system: NCI-H522 lung
# SNB-78 CNS = test system: SNB-78 CNS
# UACC-62 melanoma = test system: UACC-62 melanoma
# DMS 114 small cell lung = test system: DMS 114 small cell lung
# COLO 205 colon = test system: COLO 205 colon
# TK-10 renal = test system: TK-10 renal
# MOLT-4 leukemia = test system: MOLT-4 leukemia
# DMS 273 small cell lung = test system: DMS 273 small cell lung
# SNB-19 CNS = test system: SNB-19 CNS
# 786-0 renal = test system: 786-0 renal
# RXF-631 renal = test system: RXF-631 renal
# HOP-92 NSCLC = test system: HOP-92 NSCLC
# SW-620 colon = test system: SW-620 colon
# KM12 colon = test system: KM12 colon
# KM20L2 colon = test system: KM20L2 colon
# SF-539 CNS = test system: SF-539 CNS
# CAKI-1 renal = test system: CAKI-1 renal
# OVCAR-8 ovarian = test system: OVCAR-8 ovarian
# HCC-2998 colon = test system: HCC-2998 colon
# XF 498 CNS = test system: XF 498 CNS
# SK-MEL-28 melanoma = test system: SK-MEL-28 melanoma
# NCI-H23 lung = test system: NCI-H23 lung
# CCRF-CEM leukemia = test system: CCRF-CEM leukemia
# ACHN renal = test system: ACHN renal
# SK-OV-3 ovarian = test system: SK-OV-3 ovarian
# OVCAR-3 ovarian = test system: OVCAR-3 ovarian
# HOP-62 NSCLC = test system: HOP-62 NSCLC
# UO-31 renal = test system: UO-31 renal
# HT29 colon = test system: HT29 colon
# LOX IMVI melanoma = test system: LOX IMVI melanoma
# NCI-H460 lung = test system: NCI-H460 lung
# RXF 393 renal = test system: RXF 393 renal
# K-562 leukemia = test system: K-562 leukemia
# U251 CNS = test system: U251 CNS
# A549 NSCLC = test system: A549 NSCLC
# DLD-1 colon = test system: DLD-1 colon
# SF-295 CNS = test system: SF-295 CNS
# HL-60(TB) leukemia = test system: HL-60(TB) leukemia
# LXFL 529 NSCLC = test system: LXFL 529 NSCLC
# M14 melanoma = test system: M14 melanoma
# UACC-257 melanoma = test system: UACC-257 melanoma
# HCT-15 colon = test system: HCT-15 colon
# HCT-116 colon = test system: HCT-116 colon
# SNB-75 CNS = test system: SNB-75 CNS
# HOP-18 NSCLC = test system: HOP-18 NSCLC
# IGROV1 ovarian = test system: IGROV1 ovarian
# NCI-H226 lung = test system: NCI-H226 lung
# M19-MEL melanoma = test system: M19-MEL melanoma
# OVCAR-4 ovarian = test system: OVCAR-4 ovarian
# SR leukemia = test system: SR leukemia
# MALME-3M melanoma = test system: MALME-3M melanoma
# SN12C renal = test system: SN12C renal
# EKVX NSCLC = test system: EKVX NSCLC
# SK-MEL-2 melanoma = test system: SK-MEL-2 melanoma
# OVCAR-5 ovarian = test system: OVCAR-5 ovarian
# SK-MEL-5 melanoma = test system: SK-MEL-5 melanoma
# RPMI-8226 leukemia = test system: RPMI-8226 leukemia
# SN12K1 renal = test system: SN12K1 renal
# NCI/ADR-RES ovarian = test system: NCI/ADR-RES ovarian
# SF-268 CNS = test system: SF-268 CNS
# A498 renal = test system: A498 renal
# MCF7 breast = test system: MCF7 breast
# P388/ADR leukemia = test system: P388/ADR leukemia
# P388 leukemia = test system: P388 leukemia
smiles,measurement,setting,value
CCCCCCCCCCCCCCCCP(=O)(OC)OC,TGI,NCI-H522 lung,26.8 µM
same,TGI,SNB-78 CNS,34.1 µM
same,TGI,UACC-62 melanoma,27.8 µM
same,TGI,DMS 114 small cell lung,30.5 µM
same,TGI,COLO 205 colon,30.7 µM
same,TGI,TK-10 renal,31 µM
same,TGI,MOLT-4 leukemia,32.3 µM
same,TGI,DMS 273 small cell lung,27.6 µM
same,TGI,SNB-19 CNS,28.6 µM
same,TGI,786-0 renal,31.4 µM
same,TGI,RXF-631 renal,31.3 µM
same,TGI,HOP-92 NSCLC,35.3 µM
same,TGI,SW-620 colon,28.2 µM
same,TGI,KM12 colon,32.2 µM
same,TGI,KM20L2 colon,37.4 µM
same,TGI,SF-539 CNS,34.9 µM
same,TGI,CAKI-1 renal,30.5 µM
same,TGI,OVCAR-8 ovarian,30.9 µM
same,TGI,HCC-2998 colon,30.8 µM
same,TGI,XF 498 CNS,25.8 µM
same,TGI,SK-MEL-28 melanoma,31.6 µM
same,TGI,NCI-H23 lung,31.8 µM
same,TGI,CCRF-CEM leukemia,40.1 µM
same,TGI,ACHN renal,28 µM
same,TGI,SK-OV-3 ovarian,29 µM
same,TGI,OVCAR-3 ovarian,31.9 µM
same,TGI,HOP-62 NSCLC,24.3 µM
same,TGI,UO-31 renal,24.5 µM
same,TGI,HT29 colon,31.6 µM
same,TGI,LOX IMVI melanoma,31.9 µM
same,TGI,NCI-H460 lung,31.1 µM
same,TGI,RXF 393 renal,34.4 µM
same,TGI,K-562 leukemia,44.8 µM
same,TGI,U251 CNS,32.4 µM
same,TGI,A549 NSCLC,33.4 µM
same,TGI,DLD-1 colon,31.4 µM
same,TGI,SF-295 CNS,32.4 µM
same,TGI,HL-60(TB) leukemia,27.3 µM
same,TGI,LXFL 529 NSCLC,29.3 µM
same,TGI,M14 melanoma,30.2 µM
same,TGI,UACC-257 melanoma,31.8 µM
same,TGI,HCT-15 colon,30.2 µM
same,TGI,HCT-116 colon,33.1 µM
same,TGI,SNB-75 CNS,32 µM
same,TGI,HOP-18 NSCLC,28.6 µM
same,TGI,IGROV1 ovarian,34.6 µM
same,TGI,NCI-H226 lung,33.2 µM
same,TGI,M19-MEL melanoma,30.3 µM
same,TGI,OVCAR-4 ovarian,35.9 µM
same,TGI,SR leukemia,37.9 µM
same,TGI,MALME-3M melanoma,32.7 µM
same,TGI,SN12C renal,31.3 µM
same,TGI,EKVX NSCLC,30 µM
same,TGI,SK-MEL-2 melanoma,30 µM
same,TGI,OVCAR-5 ovarian,27.1 µM
same,TGI,SK-MEL-5 melanoma,30.7 µM
same,TGI,RPMI-8226 leukemia,35 µM
CCCCC1=C(Br)C(=C(Br)Br)OC1=O,TGI,NCI-H522 lung,3.5 µM
same,TGI,SNB-78 CNS,37 µM
same,TGI,UACC-62 melanoma,6.51 µM
same,TGI,DMS 114 small cell lung,5.71 µM
same,TGI,COLO 205 colon,8.11 µM
same,TGI,MOLT-4 leukemia,5.66 µM
same,TGI,SN12K1 renal,3.96 µM
same,TGI,DMS 273 small cell lung,8.01 µM
same,TGI,SNB-19 CNS,20.3 µM
same,TGI,HOP-92 NSCLC,23.4 µM
same,TGI,SW-620 colon,12.4 µM
same,TGI,KM12 colon,9.28 µM
same,TGI,KM20L2 colon,24.8 µM
same,TGI,SF-539 CNS,10.5 µM
same,TGI,CAKI-1 renal,5.53 µM
same,TGI,OVCAR-8 ovarian,11.4 µM
same,TGI,HCC-2998 colon,18.1 µM
same,TGI,XF 498 CNS,19.9 µM
same,TGI,SK-MEL-28 melanoma,7.78 µM
same,TGI,NCI/ADR-RES ovarian,11.9 µM
same,TGI,NCI-H23 lung,15.8 µM
same,TGI,CCRF-CEM leukemia,7.81 µM
same,TGI,SK-OV-3 ovarian,31.4 µM
same,TGI,OVCAR-3 ovarian,6.05 µM
same,TGI,SF-268 CNS,7.9 µM
same,TGI,HOP-62 NSCLC,19 µM
same,TGI,UO-31 renal,24.2 µM
same,TGI,HT29 colon,10.2 µM
same,TGI,LOX IMVI melanoma,4.78 µM
same,TGI,NCI-H460 lung,16.8 µM
same,TGI,RXF 393 renal,5.95 µM
same,TGI,K-562 leukemia,13 µM
same,TGI,U251 CNS,17.1 µM
same,TGI,A549 NSCLC,33.8 µM
same,TGI,DLD-1 colon,4.37 µM
same,TGI,SF-295 CNS,23.7 µM
same,TGI,HL-60(TB) leukemia,5.38 µM
same,TGI,UACC-257 melanoma,6.16 µM
same,TGI,HCT-15 colon,5.55 µM
same,TGI,HCT-116 colon,8.85 µM
same,TGI,SNB-75 CNS,16.5 µM
same,TGI,HOP-18 NSCLC,10.5 µM
same,TGI,A498 renal,31 µM
same,TGI,IGROV1 ovarian,5.92 µM
same,TGI,MCF7 breast,15.4 µM
same,TGI,NCI-H226 lung,9.35 µM
same,TGI,M19-MEL melanoma,8.42 µM
same,TGI,OVCAR-4 ovarian,3.32 µM
same,TGI,P388/ADR leukemia,5.76 µM
same,TGI,MALME-3M melanoma,5.31 µM
same,TGI,SN12C renal,7.92 µM
same,TGI,EKVX NSCLC,10.6 µM
same,TGI,P388 leukemia,2.4 µM
same,TGI,SK-MEL-2 melanoma,8.49 µM
same,TGI,OVCAR-5 ovarian,30.3 µM
same,TGI,SK-MEL-5 melanoma,13.5 µM
same,TGI,RPMI-8226 leukemia,4.67 µM
